Test system: ICR mice
Test: Pentobarbital-induced sleep test (sleep latency and total sleeping time)
Assay type: in vivo
Conditions: Example 2-1; positive control, 1 mg/kg oral, 30 min before pentobarbital 45 mg/kg i.p.
Description: The sleep improvement effects of the Perilla frutescens fermented extract and conventionally sold sedatives were intended to be confirmed from comparison of sleep latency and total sleeping time.
Specifically, 0.9% physiological saline, 10 mg/kg of the Perilla frutescens extract (Perilla-W) or fermented extract thereof (Perilla-B) prepared in [Example 1], and 1 mg/kg of diazepam (Myung In Pharm. Co., Ltd.) were each orally administered to ICR mice (OrientBio). 30 minutes after the administration of the test materials, 45 mg/kg of a nerve stabilizer pentobarbital (HANLIM PHARM. Co., Ltd.) was intraperitoneally administered to induce sleep. After the administration of pentobarbital, the time required to go into deep sleep (sleep latency) and the total sleep maintenance time (total sleeping time) were measured for each test material administration group. Physiological saline and diazepam were used as a control and a positive control, respectively.
Specifically, sleep latency and total sleeping time ere measured in the same manner as in Example <2-1> using 0.9% physiological saline and 10 mg/kg of the Perilla frutescens extract (Perilla-W) or fermented extract thereof (Perilla-B, Perilla-L, and Perilla-S) prepared in [Example 1].

## CN1C(=O)CN=C(c2ccccc2)c2cc(Cl)ccc21 [diazepam]
  sleep latency: 220 s

— patent publication US11554151B2, “Composition containing Perilla frutescens fermented extract for prevention, alleviation, or treatment of sleep disorder” (AJOU UNIVERSITY INDUSTRY-ACADEMIC COOPERATION FOUNDATION, priority 2017, dated 2023)
